Results as given in patent publication US10668051B2, “Modulators of calcium release-activated calcium channel” (Rhizen Pharmaceuticals SA, priority 2009, dated 2020).
pIC50: −log10 of the molar value.

Columns and labels:
Assay type in all cases: cell-based
[1] = system: TNFα; assay: Inhibition of cytokine release in PBMC: TNFα; settings: Homo sapiens, Con A + PMA, 20 h, ELISA, read-out: IC 50 PBMC TNFα
Protocol: (§1) 2. In Vitro Inhibition of Cytokine Release in Jurkat Cells, Human Whole Blood and Peripheral Blood Mononuclear Cells (PBMC).
(§2) Inhibition of cytokine IL-2, IL-4, IL-5 and TNF α was determined as described below. • a. Inhibition of IL-2 in Jurkat cells: Cells were incubated with desired concentrations of the inhibitor for 15 min. Cytokine release was induced by the addition of Concanavalin A (25 μg/ml)+Phorbol Myristate Acetate (50 ng/ml) for IL-2 & TNFα or with Phytohemagglutinin ([…]) for IL-4 & IL-5 and incubated at 37° C. in an atmosphere containing […]. Supernatant was collected after 20 h (IL-2 & TNFα) or 48 h (IL-4 & IL-5) for estimation of cytokines by ELISA. Data were analysed using GraphPad Prism. IC50 values for each compound were determined based on the percent inhibition due to the test compound compared to the control. • b. Inhibition of cytokine release in Human Whole Blood (HWB): Freshly collected HWB was diluted with RPMI medium (1:4.5) and added to a 96-well plate. Wells were incubated with desired concentrations of the inhibitor for 15 min. Cytokine release was induced by the addition of Concanavalin A (25 μg/ml)+Phorbol Myristate Acetate (50 ng/ml) for IL-2 & TNFα or with Phytohemagglutinin (5 μg/ml) for IL-4 & IL-5 and incubated at 37° C. in an atmosphere containing […]. Supernatant was collected after 20 h (IL-2 & TNFα) or 48 h (IL-4 & IL-5) for estimation of cytokines by ELISA. Data were analysed using GraphPad Prism. IC50 values for each compound were determined based on the percent inhibition due to the test compound compared to the control. • c. Inhibition of cytokine release in PBMC: PBMC from freshly collected HWB were isolated by density gradient using Histopaque and seeded in a 96-well plate. Cells were incubated with desired concentrations of the inhibitor for 15 min. Cytokine release was induced by the addition of Concanavalin A (25 μg/ml)+Phorbol Myristate Acetate (50 ng/ml) for IL-2 & TNFα or with Phytohemagglutinin (5 μg/ml) for IL-4 & IL-5 and incubated at 37° C. in an atmosphere containing […]. Supernatant was collected after 20 h (IL-2 & TNFα) or 48 h (IL-4 & IL-5) for estimation of cytokines by ELISA. Data were analysed using GraphPad Prism. IC50 values for each compound were determined based on the percent inhibition due to the test compound compared to the control.

[2] = system: IL-2; assay: Inhibition of cytokine release in Human Whole Blood: IL-2; settings: Con A + PMA, 20 h, ELISA, read-out: IC 50 Human Whole Blood IL-2
Protocol: as §1, §2

[3] = system: IL-2; assay: Inhibition of cytokine release in PBMC: IL-2; settings: Homo sapiens, Con A + PMA, 20 h, ELISA, read-out: IC 50 PBMC IL-2
Protocol: as §1, §2

[4] = system: IL-2; assay: Inhibition of IL-2 in Jurkat cells; settings: Homo sapiens, Con A + PMA, 20 h, ELISA, read-out: IC 50 Jurkat IL-2
Protocol: as §1, §2

[5] = molecular target: T1, CRAC channels (Homo sapiens (Human), UniProt Q96D31); assay: In-vitro CRAC channel inhibition assay in Jurkat cells (thapsigargin-induced calcium influx)
Summary of the method: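 Jurkat cells given test compounds in Ca2+/Mg2+-free Hanks buffer for 15 min, then thapsigargin (1 μM final) for 15 min to deplete ER stores. IC50 from percent inhibition of thapsigargin-induced Ca2+ influx.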

[6] = system: NCI-H460 cancer cell line; assay: In-vitro cell proliferation assay in NCI-H460 cancer cell line (MTT); settings: Homo sapiens, 48 h; for pIC50: read-out: NCI-H460 Cell line assay G1 50 nM
Protocol: 1C. In-Vitro Cell Proliferation Assay in NCI-H460 Cancer Cell Line (Anticancer Activity)
Growth inhibition assays were carried out using 10% FBS supplemented media. Cells were seeded at a concentration of 5000 cells/well in a 96-well plate. Test compound at a concentration range from 0.01 to 10000 nM were added after 24 h. Growth was assessed using the 3-[4,5-dimethylthiazol-2-yl]-2,5-diphenyltetrazolium bromide (MTT) dye reduction test at 0 h (prior to the addition of the test compound) and 48 h after the addition of test compound. Absorbance was read on a Fluostar Optima (BMG Labtech, Germany) at a wave length of 450 nm. Data were analysed using GraphPad Prism. IC-50 for each compound was determined based on the % inhibition due to the test compound compared to the control.
For methods of cell proliferation assay, see, for example, Mosmann. T., Journal of Immunological Methods, 65(1-2), 55-63, (1983).

[7] = system: TNFα; assay: Inhibition of cytokine release in Human Whole Blood: TNFα; settings: Con A + PMA, 20 h, ELISA, read-out: IC 50 Human Whole Blood TNFα
Protocol: as §1, §2

[8] = molecular target: T1, CRAC channels; assay: In-vitro CRAC channel inhibition assay in NCI-H460 cancer cell line (Ca assay); settings: thapsigargin-induced calcium influx, NCI-H460 cells
Protocol: 1B. In-Vitro CRAC Channel Inhibition Assay in NCI-H460 Cancer Cell Line
Inhibition of CRAC channels was determined following thapsigargin (Sigma, Cat #T9033) induced endoplasmic calcium release in NCI-H460 cells (National Centre For Cell Science (NCCS), Pune).
Cells (30,000 per well) were plated overnight in complete RPMI medium. Medium was substituted with Ca^2+ and Mg^2+ free Hanks buffer and Fluo-8 NW dye (ABD Bioquest, Inc., Sunnyvale, Calif.) loading solution in 96-well black plate. Plate was incubated at 37° C./5% CO2 for 30 min followed by further 15 min incubation at room temperature. Test compounds (DMSO stocks diluted in Ca^2+ and Mg^2+ free Hanks buffer) at desired concentrations were added to the wells and incubated for 15 min. Thapsigargin (1 μM final concentration) was added to the wells and incubated for 15 min to inhibit the Sarco-endoplasmic reticulum Ca^2+ ATPase pump thereby depleting endoplasmic calcium and raising cytosolic calcium concentrations. Store-operated calcium entry was initiated by adding extracellular Ca^2+ to a final concentration of 2.5 mM. Fluorescence was monitored over 30 min on a plate reader (BMG Labtech., Germany) with excitation at 485 nm and an emission wavelength at 520 nm. Data were analyzed using GraphPad Prism. IC50 for each compound was determined based on the percent inhibition of Thapsigargin-induced calcium influx into cells.

[9] = system: IL-4; assay: Inhibition of cytokine release in PBMC: IL-4; settings: Homo sapiens, Phytohemagglutinin, 48 h, ELISA, read-out: IC 50 PBMC IL-4
Protocol: as §1, §2

[10] = system: IL-5; assay: Inhibition of cytokine release in Human Whole Blood: IL-5; settings: Phytohemagglutinin, 48 h, ELISA, read-out: IC 50 Human Whole Blood IL-5
Protocol: as §1, §2

[11] = system: IL-5; assay: Inhibition of cytokine release in PBMC: IL-5; settings: Homo sapiens, Phytohemagglutinin, 48 h, ELISA, read-out: IC 50 PBMC IL-5
Protocol: as §1, §2

T1 sequence (Q96D31 whole entry): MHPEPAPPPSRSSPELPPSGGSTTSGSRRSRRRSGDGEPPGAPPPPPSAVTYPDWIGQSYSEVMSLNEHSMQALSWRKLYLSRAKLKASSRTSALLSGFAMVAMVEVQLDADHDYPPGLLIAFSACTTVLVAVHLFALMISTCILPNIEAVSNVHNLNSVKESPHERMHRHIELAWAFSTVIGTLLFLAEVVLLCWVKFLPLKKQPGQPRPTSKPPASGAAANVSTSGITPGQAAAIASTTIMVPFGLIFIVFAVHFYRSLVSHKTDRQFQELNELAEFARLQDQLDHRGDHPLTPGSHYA

O=C(Nc1ccc(-n2nc(C(F)(F)F)cc2C2CC2)nc1)c1ccccc1F [Example 106, N-(6-(5-cyclopropyl-3-(trifluoromethyl)-1H-pyrazol-1-yl)pyridin-3-yl)-2-fluorobenzamide]
pIC50 [1]: 6.98
pIC50 [2]: 7.08
pIC50 [3]: 7.94
pIC50 [4]: 7.22
inhibition at 1 µM [5]: 100%

Cc1nnsc1C(=O)Nc1ccc(-n2nc(C3CC3)cc2C2CC2)cc1 [Example 1, N-[4-(3,5-dicyclopropyl-1H-pyrazol-1-yl)phenyl]-4-methyl-1,2,3-thiadiazole-5-carboxamide]
inhibition at 10 µM [6]: 31%
pIC50 [7]: 5.97
pIC50 [2]: 6.47
inhibition at 1 µM [8]: 93.2%
inhibition at 1 µM [5]: 99%

O=C(Nc1ccc(-n2nc(C3CC3)cc2C2CC2)cc1)c1cccc(F)c1F [Example 9, N-[4-(3,5-dicyclopropyl-1H-pyrazol-1-yl)phenyl]-2,3-difluorobenzamide]
inhibition at 10 µM [6]: 14%
inhibition at 1 µM [8]: 86.8%
inhibition at 1 µM [5]: 98.6%

O=C(Nc1ccc(-n2nc(C3CC3)cc2C2CC2)cc1)c1ccccc1 [Example 6, N-[4-(3,5-dicyclopropyl-1H-pyrazol-1-yl)phenyl]benzamide]
inhibition at 10 µM [6]: 35%
inhibition at 1 µM [8]: 86%
inhibition at 1 µM [5]: 41.3%

C[C@]12C=CC(=O)C=C1CC[C@@H]1[C@@H]2[C@@H](O)C[C@@]2(C)[C@H]1CC[C@]2(O)C(=O)CO [Prednisolone, reference compound]
pIC50 [2]: 7.11
pIC50 [3]: 8.43
pIC50 [4]: 7.45

Cc1ncsc1C(=O)Nc1ccc(-n2nc(C(F)(F)F)cc2C2CC2)c(F)c1 [Example 83, N-{4-[5-cyclopropyl-3-(trifluoromethyl)-1H-pyrazol-1-yl]-3-fluorophenyl}-4-methylthiazole-5-carboxamide]
pIC50 [7]: 6.26
pIC50 [1]: 7.06
pIC50 [2]: 6.88
pIC50 [3]: 7.80
pIC50 [9]: 6.45
pIC50 [4]: 7.24
inhibition at 1 µM [5]: 100%

Cc1nnsc1C(=O)Nc1ccc(-n2nc(C3CC3)cc2C2CC2)c(F)c1 [Example 28, N-[4-(3,5-dicyclopropyl-1H-pyrazol-1-yl)-3-fluorophenyl]-4-methyl-1,2,3-thiadiazole-5-carboxamide]
pIC50 [10]: 7.33
pIC50 [2]: 6.22
pIC50 [3]: 7.27
pIC50 [11]: 6.70
inhibition at 1 µM [5]: 100%

Cc1ccccc1C(=O)Nc1ccc(-n2nc(C(F)(F)F)cc2C2CC2)nc1 [Example 104, N-{6-[5-cyclopropyl-3-(trifluoromethyl)-1H-pyrazol-1-yl]pyridin-3-yl}-2-methylbenzamide]
pIC50 [7]: 6.24
pIC50 [1]: 7.68
pIC50 [2]: 7.02
pIC50 [3]: 7.18
pIC50 [4]: 7.24
inhibition at 1 µM [5]: 100%

Cc1nnsc1C(=O)Nc1ccc(-n2nc(C(F)(F)F)cc2C2CC2)cc1 [Example 52, N-{4-[5-cyclopropyl-3-(trifluoromethyl)-1H-pyrazol-1-yl]phenyl}-4-methyl-1,2,3-thiadiazole-5-carboxamide]
inhibition at 10 µM [6]: 34%
inhibition at 1 µM [8]: 78.2%
inhibition at 1 µM [5]: 100%

Cc1ncsc1C(=O)Nc1ccc(-n2nc(C3CC3)cc2C2CC2)cc1 [Example 2, N-[4-(3,5-dicyclopropyl-1H-pyrazol-1-yl)phenyl]-4-methylthiazole-5-carboxamide]
pIC50 [6]: 6.70
inhibition at 1 µM [8]: 100%
inhibition at 1 µM [5]: 100%

Cc1nc(C)c(C(=O)Nc2ccc(-n3nc(C(F)(F)F)cc3C3CC3)cc2)s1 [Example 55, N-{4-[5-cyclopropyl-3-(trifluoromethyl)-1H-pyrazol-1-yl]phenyl}-2,4-dimethylthiazole-5-carboxamide]
pIC50 [6]: 6.21
inhibition at 1 µM [8]: 100%
inhibition at 1 µM [5]: 100%
